# Experimental data reported in patent US12692274B2, “Tetrahydroisoquinoline derivatives for the treatment of red blood disorders and inflammatory diseases” (Sanofi, priority 2020, dated 2026).
# Several values for one entry are separate records, joined by “and”; a condition that tells them apart may be missing. Identical values can stand only once.
# How the values were obtained:
# [1] = tested on: NQO1 activation in BEAS-2B cells; assay: BEAS-2B cellular MTT assay of NQO1 activation, 0% HSA; format: cell-based; conditions: serum free, read-out: BEAS EC50 (nM) serum free
# How it was run: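 For the 0% HSA condition, cells were seeded into collagen plates in HSA-free medium. Culture was BEAS-2B in BEBM plus BEGM SingleQuots lacking GA-1000, held under 70% confluence, at a seeding density reaching 95-100% confluence by 48 h.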
# [2] = tested on: NQO1 activation in BEAS-2B cells; assay: BEAS-2B cellular MTT assay of NQO1 activation, 0.3% HSA; format: cell-based; conditions: BEAS+, read-out: BEAS+ EC50
# How it was run: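 MTT read-out in BEAS-2B cells grown in BEBM with SingleQuots, no GA-1000, kept below 70% confluence; plates coated with collagen, with 0.3% or 0% HSA medium, seeded to 95-100% confluency at 48 h, 37 °C, 5% CO2.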
# [3] = target: HIS-Keap1 full length / Biotin-Nrf2 (16-mer) (Homo sapiens, UniProt Q14145); assay: biochemical
# HIS-Keap1 full length / Biotin-Nrf2 (16-mer), sequence (Q14145 whole entry): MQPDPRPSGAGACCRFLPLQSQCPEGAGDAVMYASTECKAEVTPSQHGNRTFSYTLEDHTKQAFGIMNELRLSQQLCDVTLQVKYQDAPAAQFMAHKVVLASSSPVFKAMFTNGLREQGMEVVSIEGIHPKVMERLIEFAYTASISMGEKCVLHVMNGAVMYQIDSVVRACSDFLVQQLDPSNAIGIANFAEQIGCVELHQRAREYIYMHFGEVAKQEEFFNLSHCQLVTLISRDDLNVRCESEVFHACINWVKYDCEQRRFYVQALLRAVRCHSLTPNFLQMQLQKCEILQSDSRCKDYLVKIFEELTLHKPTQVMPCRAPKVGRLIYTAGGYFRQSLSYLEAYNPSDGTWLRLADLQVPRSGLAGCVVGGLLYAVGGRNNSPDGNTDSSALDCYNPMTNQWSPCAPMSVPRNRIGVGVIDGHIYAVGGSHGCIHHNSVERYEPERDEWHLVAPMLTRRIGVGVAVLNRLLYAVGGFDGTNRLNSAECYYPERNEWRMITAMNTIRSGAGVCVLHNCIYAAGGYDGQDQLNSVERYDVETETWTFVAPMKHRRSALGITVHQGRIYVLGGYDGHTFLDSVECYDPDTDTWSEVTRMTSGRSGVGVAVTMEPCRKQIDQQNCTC
Compound,EC50 ([1]; Homo sapiens),EC50 [1],EC50 [2],EC50 ([2]; Homo sapiens),IC50 [3]
O=C(O)CC1c2ccc3c(c2)CN(CC3)C(=O)c2ccc(cn2)CCCCCn2nnc3c(Cl)c1ccc32 (stereo not shown) [Compound 220],178 nM,182 nM,346 nM,314 nM,1.4 nM and 1.2 nM
Cc1c2cnc3c1nnn3CCCCCCOc1ccc(c(F)c1)C(=O)N1CCc3ccc(cc3C1)C2CC(=O)O (stereo not shown) [Compound 222],17.2 nM,14.2 nM,38.6 nM,47.4 nM,1.6 nM and 1.5 nM
O=C(O)CC1c2ccc3c(c2)CN(CC3)C(=O)c2ncc(cc2F)CCCCCCn2nnc3c(Cl)c1ccc32 (stereo not shown) [Compound 224],400 nM,296 nM,314 nM,320 nM,2.1 nM and 2 nM
O=C(O)CC1c2ccc3c(c2)CN(CC3)C(=O)c2ccc(cn2)CCCCCCn2nnc3c(Cl)c1ccc32 (stereo not shown) [Compound 225],169 nM,175 nM,339 nM,303 nM,2.5 nM and 2.4 nM
O=C(O)CC1c2cnc(nc2)OCCCCc2ccc(c(Cl)c2)C(=O)N2CCc3ccc1cc3C2 (stereo not shown) [Compound 226],> 10000 nM,,,> 10000 nM,245 nM
Cc1c2ccc3c1nnn3CCCCCCOc1ccc(nc1)C(=O)N1CCc3ccc(cc3C1)C2CC(=O)O (stereo not shown) [Compound 227],517 nM,568 nM,932 nM,1130 nM,2.1 nM
Cc1c2ccc3c1nnn3CCCCCc1ccc(nc1)C(=O)N1CCc3ccc(cc3C1)C2CC(=O)O (stereo not shown) [Compound 228],524 nM,471 nM,667 nM,771 nM,1.3 nM
Cc1c2ccc3c1nnn3CCCCCCc1ccc(nc1)C(=O)N1CCc3ccc(cc3C1)C2CC(=O)O (stereo not shown) [Compound 230],384 nM,471 nM,961 nM,1090 nM,4.8 nM
C[C@H](C(=O)O)[C@@H]1c2ccc3c(c2)CN(CC3)C(=O)c2ccc(cc2)OCCCCCn2nnc3cc1ccc32 [Compound 231],153 nM,228 nM,227 nM,273 nM,3.2 nM
C[C@@H](C(=O)O)[C@H]1c2ccc3c(c2)CN(CC3)C(=O)c2ccc(cc2)OCCCCCn2nnc3cc1ccc32 [Compound 232],7.2 nM,4.6 nM,8.3 nM,9 nM,1.4 nM
C[C@H](C(=O)O)[C@H]1c2ccc3c(c2)CN(CC3)C(=O)c2ccc(cc2)OCCCCCn2nnc3cc1ccc32 [Compound 234],1840 nM,1410 nM,5840 nM,3860 nM,49.1 nM
CC(C)(C(=O)O)[C@@H]1c2ccc3c(c2)CN(CC3)C(=O)c2c(F)cc(cc2F)OCCCCCCn2nnc3cc1ccc32 [Compound 236],62.7 nM,50.3 nM and 82.1 nM and 84.7 nM,248 nM and 220 nM and 190 nM,286 nM,51 nM and 44.4 nM and 44.6 nM
O=C(O)CC1c2cnc(nc2)OCCCCCc2ccc(c(F)c2)C(=O)N2CCc3ccc1cc3C2 (stereo not shown) [Compound 238],571 nM,377 nM,603 nM,572 nM,6.2 nM
O=C(O)CC1c2ccc3c(c2)CN(CC3)C(=O)c2c(F)cc(cc2F)CCCCCCn2nnc3cc1ccc32 (stereo not shown) [Compound 243],40.7 nM,48.7 nM,104 nM,71.8 nM,2.6 nM
Cc1c2ccc3c1nnn3CCCCCCOc1ccc(cc1)C(=O)N1CCc3ccc(cc3C1)C2CC(=O)O (stereo not shown) [Compound 247],29.4 nM,26.3 nM,47.2 nM,45.4 nM,1.6 nM and 1.7 nM
O=C(O)CC1c2ccc3c(c2)CN(CC3)C(=O)c2ccc(cc2F)CCCCCn2nnc3cc1ccc32 (stereo not shown) [Compound 252],15.5 nM,,,21.2 nM,1.2 nM and 1.3 nM (2×) and 1.4 nM
Cc1c2ccc3c1nnn3CCCCCCc1cc(F)c(c(F)c1)C(=O)N1CCc3ccc(cc3C1)C2CC(=O)O (stereo not shown) [Compound 253],5.4 nM,,,6.6 nM,1.3 nM
Cc1c2ccc3c1nnn3CCCCCOc1ccc(c(F)c1)C(=O)N1CCc3ccc(cc3C1)[C@@H]2CC(=O)O [Compound 254],16 nM,17.2 nM,22.6 nM,16.4 nM,1.8 nM
C[C@@H](C(=O)O)[C@@H]1c2ccc3c(c2)CN(CC3)C(=O)c2c(F)cc(cc2F)OCCCCCCn2nnc3cc1ccc32 [Compound 256],> 10000 nM,,,> 10000 nM,86.9 nM
C[C@@H](C(=O)O)[C@H]1c2ccc3c(c2)CN(CC3)C(=O)c2c(F)cc(cc2F)OCCCCCCn2nnc3cc1ccc32 [Compound 258],9080 nM,9480 nM,2530 nM,2640 nM,4.9 nM
Cc1c2ccc3c1nnn3CCCCCOc1ccc(c(F)c1)C(=O)N1CCc3ccc(cc3C1)[C@H]2CC(=O)O [Compound 259],20.2 nM,18.7 nM,78.5 nM,47.6 nM,4.1 nM
